Experimental findings from patent publication US9296704B2, “Substituted pyrimidines as protein kinase inhibitors” (CELGENE AVILOMICS RESEARCH, INC., priority 2007, dated 2016) are described below.

The target in one test is ErbB1 (Homo sapiens, UniProt P00533). Description: Z'-LYTE biochemical assay, ErbB1 kinase inhibition. The method, boiled down: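 Fluorescence-based coupled-enzyme Z′-LYTE format: kinase phosphorylation of a peptide substrate is read by differential protease cleavage of phosphorylated versus non-phosphorylated peptide.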
For the next test, the target named is T1, EGFR mutant (C797S) (Homo sapiens, UniProt P00533, C797S).
T1 construct: Amino acids 696 to 1022 of the EGFR-WT kinase domain; six-histidine tag (TEV-cleavable) (C); made in house; host or cells: SF21 insect cells (baculovirus; P1 stocks in SF9)
Description: Mass spectrometry for EGFR mutant (C797S). Type of test: binding. Particulars: 10-fold excess of compound, up to 3 hrs, MALDI. Here is the method: Amino acids 696 to 1022 of the EGFR-WT kinase domain (NM_005228, NP_005219.2) was subcloned into the NcoI and HindIII sites of the pFastHTa vector (Invitrogen, Carlsbad, Calif.). To make the EGFR-mutant protein, the cysteine at position 797 was changed to a serine using the Stratagene QuikChange kit (Stratagene, Cedar Creek, Tex.), according to manufacturer's instructions.
EGFR wild type and EGFR mutant (C797S) was incubated with 10-fold excess of compound I-1 for 1 hr and 3 hrs. 1 ul aliquots of the samples (total volume 5-8 ul) were diluted with 10 ul of 0.1% TFA prior to micro C4 ZipTipping directly onto the MALDI target using Sinapinic acid as the desorption matrix (10 mg/ml in 0.1% TFA:Acetonitrile 50:50). […] (See FIG. 8).

The next test addresses ErbB4 (Homo sapiens, UniProt Q15303). Description: Z'-LYTE biochemical assay, ErbB4 kinase inhibition. Here is the method:
(§1) Compounds of the present invention were assayed as inhibitors of one or more of ErbB1, ErbB2, and/or ErbB4 in a manner substantially similar to the method described by Invitrogen Corp (Invitrogen Corporation, 1600 Faraday Avenue, Carlsbad, Calif., CA; http://www.invitrogen.com/downloads/Z-LYTE_Brochure—1205.pdf) using the Z′-LYTE™ biochemical assay procedure or similar biochemical assay. The Z′-LYTE™ biochemical assay employs a fluorescence-based, coupled-enzyme format and is based on the differential sensitivity of phosphorylated and non-phosphorylated peptides to proteolytic cleavage.

The next test concerns the target ErbB2 (Homo sapiens, UniProt P04626). Description: Z'-LYTE biochemical assay, ErbB2 kinase inhibition. The procedure: as §1
In the next test the target is T2, ErbB4 kinase domain (Homo sapiens, UniProt Q15303).
T2 construct: ErbB4 kinase domain (Upstate) was incubated with compound; purchased Upstate
T2 sequence (Q15303 718-985 limits assumed): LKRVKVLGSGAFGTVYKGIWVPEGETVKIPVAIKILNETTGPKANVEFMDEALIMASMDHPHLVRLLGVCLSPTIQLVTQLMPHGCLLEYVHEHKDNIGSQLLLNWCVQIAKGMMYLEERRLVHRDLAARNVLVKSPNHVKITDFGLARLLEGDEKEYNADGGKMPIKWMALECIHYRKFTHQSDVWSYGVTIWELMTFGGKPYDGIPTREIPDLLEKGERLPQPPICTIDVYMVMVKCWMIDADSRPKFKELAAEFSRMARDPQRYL
Description: Mass spectrometry for ErbB4 (covalent modification). The conditions noted are these: 10-fold excess of compound, 90 minutes, MALDI. Format: binding. Here is the method:
ErbB4 kinase domain (Upstate) was incubated with compound for 90 minutes at 10-fold excess of compound I-1 to protein. 1 ul aliquots of the samples (total volume of 4.24 ul) were diluted with 10 ul of 0.1% TFA prior to micro C4 ZipTipping directly onto the MALDI target using Sinapinic acid as the desorption matrix (10 mg/ml in 0.1% TFA:Acetonitrile 50:50). For intact protein mass measurement the instrument was set in Linear mode using a pulsed extraction setting of 16,952 for the myoglobin standard used to calibrate the instrument
Intact ErbB4 protein occurs at MH+ of 35850 with corresponding sinapinic (matrix) adducts occurring about 200 Da higher. A stochiometric incorporation of the compound I-1 (Mw of 410 Da) produced a new mass peak which is approximately 410 Da higher (MH+ of 36260).

Test [1] deals with EGFR (ErbB1) in A431 human epidermoid carcinoma cells. Briefly: Washout experiment for EGFR activity in A431 cells. Type of test: cell-based. The procedure:
A431 human epidermoid carcinoma cells were grown in 6-well plates to 90% confluence and then incubated in serum-free media for 18 hr. Duplicate sets of cells were treated with 1 μM designated compound for 1 hr. One set of cells was then stimulated with 100 ng/ml EGF for 5 min, and extracts were made as described. The other set of cells was washed free of the compound with warmed compound-free medium, incubated for 2 hr, washed again, incubated another 2 hr, washed again, and then incubated another 2 hr washed again and incubated for additional 2 hr and then stimulated with EGF.

The next test has as its target BTK (Homo sapiens, UniProt Q06187). Description: Mass spectrometry for BTK (intact protein). Format: binding. The conditions noted are these: 10× excess, 1 hr, MALDI. Here is the method:
Intact BTK was incubated for 1 hr at a 10× fold excess of compound I-63 or I-66 to protein. Aliquots (2 ul) of the samples were diluted with 10 ul of 0.1% TFA prior to micro C4 ZipTipping directly onto the MALDI target using Sinapinic acid as the desorption matrix (10 mg/ml in 0.1% TFA:Acetonitrile 20:80). The top panels of FIGS. 12 and 13 show the mass spec trace of the intact BTK protein (m/z 81,169 Da). The bottom panels show the mass spec trace when BTK was incubated with compound I-63 (mw 424.5) or compound I-66 (mw 425.5) in FIGS. 12 and 13, respectively.

Chain of ErbB2 (P04626 23-1255): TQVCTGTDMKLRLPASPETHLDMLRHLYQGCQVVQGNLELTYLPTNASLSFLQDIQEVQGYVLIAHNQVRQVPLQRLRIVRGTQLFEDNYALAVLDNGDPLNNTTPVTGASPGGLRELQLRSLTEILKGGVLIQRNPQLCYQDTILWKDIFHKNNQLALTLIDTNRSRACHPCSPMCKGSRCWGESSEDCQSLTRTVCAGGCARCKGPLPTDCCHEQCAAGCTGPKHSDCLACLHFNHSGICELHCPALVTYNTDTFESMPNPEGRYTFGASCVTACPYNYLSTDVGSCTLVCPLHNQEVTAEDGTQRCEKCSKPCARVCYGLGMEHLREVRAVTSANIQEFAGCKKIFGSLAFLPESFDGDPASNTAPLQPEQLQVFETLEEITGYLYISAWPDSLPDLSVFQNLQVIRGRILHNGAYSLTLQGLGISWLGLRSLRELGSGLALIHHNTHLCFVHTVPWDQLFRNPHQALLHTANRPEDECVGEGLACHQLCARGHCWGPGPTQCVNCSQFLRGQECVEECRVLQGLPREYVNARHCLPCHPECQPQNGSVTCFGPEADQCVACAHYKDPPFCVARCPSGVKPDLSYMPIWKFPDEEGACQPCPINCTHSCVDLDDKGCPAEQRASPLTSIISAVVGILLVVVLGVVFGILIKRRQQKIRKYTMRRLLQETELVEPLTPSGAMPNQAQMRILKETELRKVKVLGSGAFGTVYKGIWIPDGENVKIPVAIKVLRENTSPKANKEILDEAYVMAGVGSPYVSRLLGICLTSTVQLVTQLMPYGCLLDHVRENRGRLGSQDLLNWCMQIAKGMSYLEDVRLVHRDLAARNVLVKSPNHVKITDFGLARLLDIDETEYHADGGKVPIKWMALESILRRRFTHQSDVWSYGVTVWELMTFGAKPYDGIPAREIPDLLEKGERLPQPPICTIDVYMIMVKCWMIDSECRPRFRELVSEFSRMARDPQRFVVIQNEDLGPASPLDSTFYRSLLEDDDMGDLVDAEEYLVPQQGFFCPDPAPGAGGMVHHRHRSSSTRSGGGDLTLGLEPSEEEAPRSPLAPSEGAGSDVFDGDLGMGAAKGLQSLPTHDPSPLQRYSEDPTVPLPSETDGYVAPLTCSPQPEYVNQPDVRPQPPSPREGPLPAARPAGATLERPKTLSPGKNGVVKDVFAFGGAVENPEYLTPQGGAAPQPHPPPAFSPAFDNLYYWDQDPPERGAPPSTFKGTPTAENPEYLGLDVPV
Chain of ErbB4 (Q15303 26-1308): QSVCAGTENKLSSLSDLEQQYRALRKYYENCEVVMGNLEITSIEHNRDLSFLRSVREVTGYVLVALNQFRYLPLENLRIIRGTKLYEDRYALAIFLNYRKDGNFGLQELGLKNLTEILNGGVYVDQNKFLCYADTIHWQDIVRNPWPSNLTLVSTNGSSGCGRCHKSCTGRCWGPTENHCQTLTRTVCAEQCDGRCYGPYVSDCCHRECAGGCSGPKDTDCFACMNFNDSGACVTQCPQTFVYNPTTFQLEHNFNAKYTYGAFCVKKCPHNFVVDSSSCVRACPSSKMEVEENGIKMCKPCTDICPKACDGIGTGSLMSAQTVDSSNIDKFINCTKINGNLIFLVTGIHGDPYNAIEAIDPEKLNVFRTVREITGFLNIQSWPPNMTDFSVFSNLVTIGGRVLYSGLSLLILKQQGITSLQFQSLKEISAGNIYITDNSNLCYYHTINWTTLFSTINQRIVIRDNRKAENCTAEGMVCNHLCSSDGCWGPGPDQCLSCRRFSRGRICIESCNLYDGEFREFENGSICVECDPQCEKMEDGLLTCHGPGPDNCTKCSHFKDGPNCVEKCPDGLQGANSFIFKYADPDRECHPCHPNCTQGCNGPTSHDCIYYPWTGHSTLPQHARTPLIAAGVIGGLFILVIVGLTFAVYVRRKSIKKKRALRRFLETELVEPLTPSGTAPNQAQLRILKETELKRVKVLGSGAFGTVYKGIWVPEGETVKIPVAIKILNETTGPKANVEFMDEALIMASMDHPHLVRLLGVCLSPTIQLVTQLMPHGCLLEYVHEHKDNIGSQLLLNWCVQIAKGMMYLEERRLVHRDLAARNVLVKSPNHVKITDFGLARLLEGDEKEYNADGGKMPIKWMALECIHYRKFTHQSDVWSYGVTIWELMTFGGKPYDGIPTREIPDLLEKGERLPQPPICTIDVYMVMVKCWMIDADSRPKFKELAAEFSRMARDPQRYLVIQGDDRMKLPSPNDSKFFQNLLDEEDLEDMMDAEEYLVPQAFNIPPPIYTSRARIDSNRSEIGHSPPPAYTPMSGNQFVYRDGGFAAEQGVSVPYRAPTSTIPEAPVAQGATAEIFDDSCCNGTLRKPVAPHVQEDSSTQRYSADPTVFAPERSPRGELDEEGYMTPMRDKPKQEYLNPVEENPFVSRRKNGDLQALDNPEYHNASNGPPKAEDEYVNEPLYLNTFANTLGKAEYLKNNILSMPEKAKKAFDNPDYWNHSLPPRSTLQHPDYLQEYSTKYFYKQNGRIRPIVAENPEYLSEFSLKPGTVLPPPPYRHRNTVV
Chain of BTK (Q06187 whole entry): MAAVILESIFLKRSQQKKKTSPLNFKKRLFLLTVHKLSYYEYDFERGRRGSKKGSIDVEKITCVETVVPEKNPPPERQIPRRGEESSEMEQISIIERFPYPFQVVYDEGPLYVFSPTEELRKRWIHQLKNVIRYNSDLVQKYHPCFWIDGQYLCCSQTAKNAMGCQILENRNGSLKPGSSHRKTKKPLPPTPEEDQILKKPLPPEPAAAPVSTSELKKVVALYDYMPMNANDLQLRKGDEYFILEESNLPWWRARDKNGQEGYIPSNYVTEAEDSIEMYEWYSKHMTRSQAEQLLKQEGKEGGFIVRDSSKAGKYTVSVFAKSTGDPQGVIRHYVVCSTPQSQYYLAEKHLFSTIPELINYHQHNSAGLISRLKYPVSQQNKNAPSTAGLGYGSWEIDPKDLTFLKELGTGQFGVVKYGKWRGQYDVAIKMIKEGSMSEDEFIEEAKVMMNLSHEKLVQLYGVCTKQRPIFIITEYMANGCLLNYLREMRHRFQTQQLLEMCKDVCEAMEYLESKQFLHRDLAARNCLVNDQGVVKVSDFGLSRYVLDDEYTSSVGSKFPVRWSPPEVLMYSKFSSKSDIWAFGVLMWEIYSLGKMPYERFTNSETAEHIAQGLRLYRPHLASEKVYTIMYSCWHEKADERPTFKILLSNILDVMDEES

With `C=CC(=O)Nc1cccc(Nc2cc(Nc3cccc(Br)c3)ncn2)c1` [I-1, N-{3-[6-(3-bromophenylamino)-pyrimidin-4-ylamino]-phenyl}-2-propenamide], on ErbB1 (@ 10 nM), the inhibition (as a rule, the drop in the measured response relative to a control, in per cent) at 0.01 µM is 99%. The “reactivity with EGFR mutant (C797S) by intact mass” value on EGFR mutant (C797S) was “no significant reactivity”. Besides, the inhibition at 0.1 µM against ErbB4 (@ 100 nM) was 64%; at ErbB2 (@ 100 nM), 61%. In addition, the inhibition at 1 µM against ErbB4 (@ 1 μM) is 86%; against ErbB2, 76%. For the same compound, the “modification of ErbB4 by intact mass” value at ErbB4 kinase domain is on record as “covalent modification of ErbB4”. The “enzyme inhibition after washout” value in test [1] (A431 cells, 1 μM for 1 hr, washout, EGF stimulation) is reported as “maintains enzyme inhibition”. In test [1] (washout experiment, FIG. 2), the “type of binding to ErbB1 (irreversible / reversible)” value is “irreversibly binds to ErbB1”.

As to `C=CC(=O)Nc1cccc(Nc2cc(Nc3ccc(Oc4ccccc4)cc3)ncn2)c1` [I-13, N-{3-[6-(4-phenoxyphenylamino)-pyrimidin-4-ylamino]phenyl}-2 propenamide], the inhibition at 1 µM came to 92% on ErbB1 (@ 1 μM) and 98% at ErbB2.

In the case of `C=CC(=O)Nc1cccc(Nc2cc(Nc3ccc(Oc4ccccc4)cc3)ncn2)n1` [I-63], the “modification of intact BTK by mass shift” value on BTK is on record as “complete modification of BTK”.

For the compound `C=CC(=O)Nc1cccc(Nc2cc(Oc3ccc(Oc4ccccc4)cc3)ncn2)n1` [I-66], at BTK, the “modification of intact BTK by mass shift” value was “complete modification of BTK”.
